Here are results for 19 molecules from ChEMBL document CHEMBL5532634, “Oxazolidinone: A promising scaffold for the development of antibacterial drugs” (Eur J Med Chem, 2023).

Structures are written as SMILES. ≈ marks a conversion by molar mass, not a printed value.

Holding throughout (assay type): functional
Assay [1] deals with Staphylococcus aureus. The assay can be described thus: Antibacterial activity against Staphylococcus aureus ATCC 29213 assessed as reduction in bacterial growth incubated for 24 hrs by Mueller Hinton Agar based plate analysis.
Assay [2] deals with Staphylococcus aureus. The assay can be described thus: Antibacterial activity against Staphylococcus aureus ATCC 29213 assessed as bacterial growth inhibition incubated for 24 hrs by broth dilution method.
The subject of assay [3] is Staphylococcus aureus. The assay can be described thus: Antibacterial activity against methicillin-resistant Staphylococcus aureus ATCC 3300 assessed as reduction in microbial growth measured after 24 hrs by broth microdilution analysis.
Assay [4] deals with Staphylococcus aureus. The experiment in a line: Antibacterial activity against Linezolid-resistant Staphylococcus aureus assessed as reduction in bacterial growth.
For another assay, the system named is Enterococcus faecium. The assay can be described thus: Antibacterial activity against Linezolid-resistant Enterococcus faecium assessed as reduction in bacterial growth.
In a further assay the test system is Enterococcus faecalis. The assay can be described thus: Antibacterial activity against Enterococcus faecalis UC9217 assessed as reduction in bacterial growth by broth microdilution method.
Assay [5] has as its system Staphylococcus epidermidis. The assay can be described thus: Antibacterial activity methicillin-resistant Staphylococcus epidermidis UC12084 assessed as reduction in bacterial growth by broth microdilution method.
The test system of assay [6] is Staphylococcus aureus. The experiment in a line: In vivo Antibacterial activity against Methicillin-resistant Staphylococcus aureus in PO dosed mouse infected model assessed as reduction in bacterial load.
A further assay has as its system Moraxella catarrhalis. The experiment in a line: Antibacterial activity against Moraxella catarrhalis UC30610 assessed as reduction in bacterial growth by broth microdilution method.
Another assay relates to Haemophilus influenzae. The experiment in a line: Antibacterial activity against Haemophilus influenzae UC30063 assessed as reduction in bacterial growth by broth microdilution method.
The subject of assay [7] is Staphylococcus aureus. The assay can be described thus: Antibacterial activity against Staphylococcus aureus ATCC 29213 assessed as reduction in microbial growth measured after 24 hrs by broth microdilution analysis.
The test system of assay [8] is Staphylococcus aureus. The assay can be described thus: Antibacterial activity against Methicillin-resistant Staphylococcus aureus assessed as reduction in microbial growth by Muller Hinton broth based dilution assay.
Assay [9] has as its system Staphylococcus aureus. The assay can be described thus: Antibacterial activity against Staphylococcus aureus ATCC 29213 assessed as reduction in bacterial growth incubated for 24 hrs by serial dilution method.

For the molecule `CC(=O)NC[C@H]1CN(c2ccc3c(c2)OC[C@@H]2CCCN32)C(=O)O1`, in the assay with Staphylococcus aureus [1], the MIC worked out at 4 µg/mL (≈ 12.1 µM). `CC/C(S)=N\C[C@H]1CN(c2cc(F)c3c(c2)OC[C@@H]2CCCN32)C(=O)O1`: the MIC in the assay with Staphylococcus aureus [2] amounted to 0.5 µg/mL (≈ 1.32 µM). Still for that read-out and setting: with `CO/C(S)=N\C[C@H]1CN(c2cc(F)c3c(c2)OC[C@@H]2CCCN32)C(=O)O1` the figure was 0.5 µg/mL (≈ 1.31 µM); with `N=C(S)NC[C@H]1CN(c2cc(F)c3c(c2)OC[C@@H]2CCCN32)C(=O)O1`, 0.5 µg/mL (≈ 1.36 µM). For the molecule `CC(=O)NC[C@H]1CN(c2ccc(C3=CCOCC3)c(F)c2)C(=O)O1`, in the assay on Staphylococcus aureus [3], the MIC was 0.13 µg/mL. On the same count and under the same terms, with `O=C1O[C@@H](COc2ccccn2)CN1c1ccc(C2=CCOCC2)c(F)c1` the figure was 1 µg/mL.

As for `CC(=O)NC[C@H]1CN(c2ccc(N3CCN(c4c(F)cc5c(=O)c(C(=O)O)cn6c5c4OC[C@@H]6C)CC3)c(F)c2)C(=O)O1`, the MIC in the assay on Staphylococcus aureus [4] was 2 µg/mL (≈ 3.35 µM); in the assay with Enterococcus faecium it was 0.5 µg/mL (≈ 0.837 µM). Taken in the same sequence, the figures for `CC(=O)NC[C@H]1CN(c2ccc(N3CCN(c4c(F)cc5c(=O)c(C(=O)O)cn6c5c4OCC6C)CC3)c(F)c2)C(=O)O1` (some centres undefined) were 2 µg/mL (≈ 3.35 µM) and 0.5 µg/mL (≈ 0.837 µM). Take `CC(=O)NC[C@H]1CN(c2ccc(-n3ccc(C#N)c3)c(F)c2)C(=O)O1`: the MIC in the assay on Enterococcus faecalis worked out at 0.125 µg/mL (≈ 0.365 µM); in assay [5] it was 0.125 µg/mL (≈ 0.365 µM); in the assay on Moraxella catarrhalis, 2 µg/mL (≈ 5.84 µM); in the assay on Haemophilus influenzae, 2 µg/mL (≈ 5.84 µM). For the same molecule, the ED50 with Staphylococcus aureus [6] was determined as 1.9 mg/kg. For the molecule `CC(=O)NC[C@H]1CN(c2ccc(-n3cc(C#N)nn3)c(F)c2)C(=O)O1`, the MIC in the assay on Enterococcus faecalis amounted to 0.125 µg/mL (≈ 0.363 µM); in [5], 0.125 µg/mL (≈ 0.363 µM); with Moraxella catarrhalis, 2 µg/mL (≈ 5.81 µM); in the assay on Haemophilus influenzae, 2 µg/mL (≈ 5.81 µM). Further, the ED50 with Staphylococcus aureus [6] was found to be 1.2 mg/kg. As to `CC(=O)NC[C@H]1CN(c2ccc(-n3ncc(C#N)n3)c(F)c2)C(=O)O1`, the MIC is 0.125 µg/mL (≈ 0.363 µM) in the assay with Enterococcus faecalis, 0.125 µg/mL (≈ 0.363 µM) in [5], 2 µg/mL (≈ 5.81 µM) in the assay on Moraxella catarrhalis and 2 µg/mL (≈ 5.81 µM) in the assay with Haemophilus influenzae. Moreover, the ED50 with Staphylococcus aureus [6] was 1.9 mg/kg. `C[C@@H](O)C(=O)N1CC=C(c2c(F)cc(N3C[C@H](COc4ccon4)OC3=O)cc2F)CC1`: in the assay on Staphylococcus aureus [7], the MIC came to 0.25 µg/mL.

Consider `O=C1O[C@@H](Cn2ccnn2)CN1c1ccc(N2CCN(S(=O)(=O)c3cccc(C(F)(F)F)c3)CC2)c(F)c1`, for which the MIC in the assay with Staphylococcus aureus [8] was 0.5 µg/mL. The same measure, in the same setting: with `O=C1O[C@@H](Cn2ccnn2)CN1c1ccc(N2CCN(S(=O)(=O)c3ccc(Cl)cc3)CC2)c(F)c1` the figure was 0.5 µg/mL; with `O=C1O[C@@H](Cn2ccnn2)CN1c1ccc(N2CCN(S(=O)(=O)c3cccc(F)c3)CC2)c(F)c1`, 0.5 µg/mL; with `Nc1cccc(S(=O)(=O)N2CCN(c3ccc(N4C[C@H](Cn5ccnn5)OC4=O)cc3F)CC2)c1`, 0.5 µg/mL. On to `CC(=O)NC[C@H]1CN(c2ccc(N3CCN(c4cc5c(cc4F)c(=O)c(C(=O)O)cn5C4CC4)CC3)c(F)c2)C(=O)O1`, for which the MIC in the assay on Staphylococcus aureus [4] was determined as 2 µg/mL (≈ 3.44 µM); in the assay on Enterococcus faecium, 0.5 µg/mL (≈ 0.86 µM). Take `CC(=O)NC[C@H]1CN(c2ccc(-n3cc(C(=O)O)c(=O)c4cc(F)c(N5CCN(C)CC5)cc43)c(F)c2)C(=O)O1`: the MIC in the assay on Staphylococcus aureus [9] was more than 64 µg/mL. For the molecule `O=C([C@H](O)CO)N1CC=C(c2c(F)cc(N3C[C@H](COc4ccon4)OC3=O)cc2F)CC1`, the MIC with Staphylococcus aureus [7] came out at 0.25 µg/mL.
